Source: patent US6632418B2, “Radioligands and their use for identifying potassium channel modulators” (Abbott Laboratories, priority 2001, dated 2003)
Read-outs that look alike come from different tables or passages of the source.

Assays:
[1] = biological target: T1, ATP-sensitive potassium channels (Cavia porcellus, UniProt A0A286XYR9); assay: Radioligand (Example 1) binding assay, guinea-pig cardiac ventricle membranes; details: for effect on specific binding of Example 1 (in words): guinea-pig cardiac membranes
Experimental: Membrane Preparation: Guinea-pig cardiac ventricles and bladder membranes were prepared by standard procedures, Gopalakrishnan, M., Johnson, D. E., Janis, R. A. & Triggle, D. J. (1991) Journal of Pharmacology and Experimental Therapeutics, 257, 1162-71; Russ, U., Metzger, F., Kickenweiz, E., Hambrock, A., Krippeit-Drews, P. & Quast, U. (1997) Br. J. Pharmacol., 122, 1119-1126. Briefly, ventricles and bladders were quickly removed from male guinea-pigs (Charles River) and placed in ice-cold binding buffer. Tissues were cleansed of adherent connective tissue, chopped into small pieces and disrupted using Tekmar polytron in about 15-vol./g tissue weight. Homogenates were centrifuged at 45,000×g and the membrane pellets were resuspended in the assay buffer. Membrane preparations from other tissues, cells, both clonal and transfected with KATP subunits, may also be used. Clonal cell lines or transfected cell lines can be cultured by standard tissue culture techniques. When cells were confluent, membrane preparations were made by removal of media followed by scraping the monolayer in ice-cold Tris HCl buffer (pH 7.2). The suspension was then centrifuged at 45,000×g for 20 minutes and the pellet was resuspended in the assay buffer for use in radioligand assays.
Binding Assay: A radioligand of formula (I) such as 9-(4-fluoro-3-[I^125]iodophenyl)-2,3,5,9-tetrahydro-4H-pyrano[3,4-b]thieno[2,3-e]pyridin-8(7H)-one 1,1-dioxide (Example 1) (specific activity, 2000 Ci/mmol) was stored in ethanol. Prior to use, the desired amount of Example 1 was dried under a gentle stream of nitrogen gas and reconstituted in the assay buffer (usually prepared as a 10×stock). Guinea-pig ventricle membranes were incubated in a total 0.25 mL volume of HEPES buffer (composition, NaCl, 139 mM; KCl, 5 mM, MgCl2, 25 mM; CaCl2, 1.25 mM; pH 7.4 at 25° C.) containing an ATP regenerating system (creatine phosphate (40 mM), creatine phosphokinase (100 enzyme units) and varying concentrations of Na2ATP (0.01-3 mM) with Example 1 and varying concentrations of test compounds at 37° C. for 90 minutes. These conditions have been previously employed by Gopalakrishnan et al., 1991 (see above), hereby incorporated by reference, wherein the levels of ATP were consistently maintained since free ADP is converted back to ATP by creatine phosphate and creatine is regenerated to creatine phosphate by the enzyme creatine phosphokinase.
Saturation binding of Example 1 was performed with varying concentrations of Example 1. For inhibition assays, samples were incubated in a final volume of 0.25 mL of buffer containing 1-2 nM of Example 1 with varying concentrations of the test compounds. Incubations were terminated by rapid vacuum filtration through GF/B filters followed by rinsing twice with ice-cold 50 mM Tris HCl (pH 7.4). Radioactivity bound to the filters was assessed by gamma counting. Specific radioligand binding is defined by the inclusion of 10 μM of unlabeled Example 1 and was obtained by subtracting the nonspecific binding from the total binding to membranes and filters.
Membrane protein concentration was determined by the method of Lowry et al Gopalakrishnan, M., Triggle, D. J., Rutledge, A., Kwon, Y. W., Bauer, J. A. & Fung, H. L. (1991) Am. J. Physiol., 261, H1979-H1987; Janis, R. A., Maurer, S. C., Sarmiento, J. G., Bolger, G. T. & Triggle, D. J. (1982). Eur. J. Pharmacol., 82, 191-4.
The equilibrium dissociation constant (KD) and maximal density of binding sites (Bmax) of Example 1 was determined by non-linear regression of the saturation binding isotherm. The Ki values were calculated from the concentration inhibition curve by the method of Cheng and Prusoff (1973) Biochem.Pharmacol.,22, 3099-3108. Data is presented as means±S.E.M.

[2] = biological target: ATP-sensitive potassium channel; assay: Comparison of the profile of the novel radioligand with [^3H]P1075 in membrane preparations; format: binding; details: radioligand comparison table; read-out: Affinity
[3] = biological target: T1, ATP-sensitive potassium channels; assay: Radioligand (Example 1) binding assay, guinea-pig cardiac ventricle membranes; details: without ATP regenerating system
[4] = cardiac membranes, in the presence of the ATP regenerating system, Cheng-Prusoff, read-out: Ki value for displacement of specific Example 1 binding
[5] = quantity not given, Ki per method, mean±S.E.M., read-out: displacement of specific Example 1 binding by KATP channel blockers

T1 sequence (A0A286XYR9 1-1546): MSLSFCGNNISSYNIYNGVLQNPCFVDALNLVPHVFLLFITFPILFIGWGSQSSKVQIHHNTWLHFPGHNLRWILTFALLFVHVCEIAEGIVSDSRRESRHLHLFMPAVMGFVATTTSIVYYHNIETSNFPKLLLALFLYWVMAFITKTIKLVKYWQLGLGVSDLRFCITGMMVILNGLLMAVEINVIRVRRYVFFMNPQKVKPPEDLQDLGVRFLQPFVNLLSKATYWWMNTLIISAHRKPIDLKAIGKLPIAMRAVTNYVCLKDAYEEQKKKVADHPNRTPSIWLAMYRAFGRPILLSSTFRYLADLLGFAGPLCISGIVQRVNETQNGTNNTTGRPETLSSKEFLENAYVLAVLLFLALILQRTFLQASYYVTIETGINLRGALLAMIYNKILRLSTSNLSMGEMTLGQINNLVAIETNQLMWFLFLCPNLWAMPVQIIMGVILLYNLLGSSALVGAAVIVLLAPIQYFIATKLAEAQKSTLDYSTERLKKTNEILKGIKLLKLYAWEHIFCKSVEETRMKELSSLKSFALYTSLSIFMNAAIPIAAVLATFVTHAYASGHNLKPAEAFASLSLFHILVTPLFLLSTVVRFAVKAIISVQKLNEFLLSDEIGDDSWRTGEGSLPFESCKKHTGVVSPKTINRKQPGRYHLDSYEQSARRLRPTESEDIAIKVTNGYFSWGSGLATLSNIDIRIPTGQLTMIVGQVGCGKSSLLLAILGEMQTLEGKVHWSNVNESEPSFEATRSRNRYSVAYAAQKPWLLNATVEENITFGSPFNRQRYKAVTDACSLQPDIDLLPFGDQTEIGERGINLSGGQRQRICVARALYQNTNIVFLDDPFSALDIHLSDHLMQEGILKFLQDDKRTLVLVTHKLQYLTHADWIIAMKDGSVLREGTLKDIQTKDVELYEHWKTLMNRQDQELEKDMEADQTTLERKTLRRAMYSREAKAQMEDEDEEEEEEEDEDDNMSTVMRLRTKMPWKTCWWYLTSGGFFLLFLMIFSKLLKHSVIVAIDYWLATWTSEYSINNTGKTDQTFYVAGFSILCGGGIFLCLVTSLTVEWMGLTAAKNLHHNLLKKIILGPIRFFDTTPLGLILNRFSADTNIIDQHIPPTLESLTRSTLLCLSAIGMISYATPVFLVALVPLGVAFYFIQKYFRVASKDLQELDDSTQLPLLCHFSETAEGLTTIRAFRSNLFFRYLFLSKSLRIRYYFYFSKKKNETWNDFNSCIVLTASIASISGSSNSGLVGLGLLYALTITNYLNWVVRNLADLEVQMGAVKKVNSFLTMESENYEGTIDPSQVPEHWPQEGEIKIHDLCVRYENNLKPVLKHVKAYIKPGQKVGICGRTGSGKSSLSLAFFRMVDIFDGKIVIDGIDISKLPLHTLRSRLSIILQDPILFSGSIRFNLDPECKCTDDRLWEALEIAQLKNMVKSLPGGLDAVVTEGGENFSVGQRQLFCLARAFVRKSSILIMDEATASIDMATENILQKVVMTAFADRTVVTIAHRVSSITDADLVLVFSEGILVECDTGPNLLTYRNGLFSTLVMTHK

## CCOc1ccccc1N/C(=C\[N+](=O)[O-])NC(C)C(C)(C)C (stereo not drawn) [Bay X 9228]
[1]
  effect on specific binding of Example 1 (in words): displaced

## O=C1COCC2=C1C(c1ccc(F)c(I)c1)C1=C(CCS1(=O)=O)N2 (stereo not drawn) [Example 1, 9-(4-fluoro-3-[I^125]iodophenyl)-2,3,5,9-tetrahydro-4H-pyrano[3,4-b]thieno[2,3-e]pyridin-8(7H)-one 1,1-dioxide]
[2]
  Kd: 5 nM
[1]; [4]
  Ki: 5.8 nM
[1]; guinea-pig cardiac ventricle membranes, single set of saturable sites, n=3, mean±S.E.M., read-out: KD value (equilibrium dissociation constant), saturation binding
  Kd: 5.83 ± 0.77 nM

## O=C1COCC2=C1C(c1ccc(F)c([125I])c1)C1=C(CCS1(=O)=O)N2 (stereo not drawn) [Example 1, 9-(4-fluoro-3-[I^125]iodophenyl)-2,3,5,9-tetrahydro-4H-pyrano[3,4-b]thieno[2,3-e]pyridin-8(7H)-one 1,1-dioxide]
[3]
  specific binding in the presence of just ATP alone: no specific binding was detected
[1]; guinea-pig cardiac ventricle membranes, saturation binding, n=3
  maximum binding capacity (Bmax): 107.7±12.7 femtomol/mg protein

## O=C1CCCC2=C1[C@H](c1ccc(F)c(Br)c1)C1=C(CCS1(=O)=O)N2 [Example A-278637]
[1]
  effect on specific binding of Example 1 (in words): displaced

## CCC(C)(C)N=C(NC#N)Nc1cccnc1 [Example P1075]
[1]
  effect on specific binding of Example 1 (in words): displaced

## O=C1COCC2=C1C(c1ccc(F)c(I)c1)C1=C(CCS1(=O)=O)N2 (stereo not drawn) [Unlabeled Example 1, 9-(4-fluoro-3-iodophenyl)-2,3,5,9-tetrahydro-4H-pyrano[3,4-b]thieno[2,3-e]pyridin-8(7H)-one 1,1-dioxide]
[1]; [4]
  Ki: 5.8 nM

## CC1(C)Oc2ccc(C#N)cc2C(N2CCCC2=O)C1O (stereo not drawn) [cromakalim]
[1]
  effect on specific binding of Example 1 (in words): displaced

## CC1=NS(=O)(=O)c2cc(Cl)ccc2N1 [diazoxide]
[1]; cardiac membranes, rank order potency, read-out: Ki value for displacement of Example 1 binding
  Ki: 44800 nM

## Cc1cnc(C(=O)NCCc2ccc(S(=O)(=O)NC(=O)NC3CCCCC3)cc2)cn1 [glipizide]
[1]; [5]
  Ki: 4500 ± 400 nM

## COc1ccc(Cl)cc1C(=O)NCCc1ccc(S(=O)(=O)NC(=O)NC2CCCCC2)cc1 [glyburide]
[1]; [5]
  Ki: 47.6 ± 9.4 nM

## COC(=O)C1=C(C)NC(C)=C(C(=O)OC(C)C)C1c1cccc2nonc12 (stereo not drawn) [isradipine]
[1]
  effect on specific binding of Example 1 (in words): unaffected

## CC(N/C(=N\C#N)Nc1ccncc1)C(C)(C)C (stereo not drawn) [pinacidil]
[1]
  effect on specific binding of Example 1 (in words): displaced
